From patent US20260325533A1, “CDK INHIBITOR COMPOUNDS” (ALEKSIA THERAPEUTICS, INC., priority 2023, published 2026)
Where two headings read alike, the source gives them in different places. Blank lines part the entries; values can stand above or below the molecule they belong to.

Tests used:
Format in all cases: biochemical
[1] = biological target: CDK1/CCNB1 (Homo sapiens, UniProt P06493); assay: CDK1 homogeneous time-resolved fluorescence (HTRF) kinase assay
In short: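 Kinase activity is measured as Lance signal (665 nm, or 665/615 nm ratio) from europium-labelled anti-phospho-Thr37/46 antibody binding ULight-4E-BP1 peptide. Reactions contain 0.5 nM enzyme, 1 mM ATP, 1% DMSO and run 60 min at 23 °C before EDTA quench.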

[2] = biological target: CDK2/CCNE1 (Homo sapiens, UniProt P24941); assay: CDK2 homogeneous time-resolved fluorescence (HTRF) kinase assay
In short: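 3 nM CDK2/CCNE1 was preincubated with compound for 20 min at 23 °C in HEPES buffer (pH not stated), then reacted 60 min with 1 mM ATP and 50 nM ULight-4E-BP1 (Thr37/46) peptide. After EDTA stop, Eu-anti-phospho-4E-BP1 antibody (2 nM) was added for 60 min and TR-FRET read at 665 nm.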

[3] = biological target: CDK4/CCND3 (Homo sapiens, UniProt P11802); assay: CDK4 homogeneous time-resolved fluorescence (HTRF) kinase assay
In short: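 CDK4/CCND3 at 1.5 nM was preincubated with compound for 20 min at 23 °C, then reacted for 60 min with 1 mM ATP and 50 nM ULight-4E-BP1 (Thr37/46) peptide. The reaction was stopped with EDTA, and phosphorylation was read by HTRF with a Eu-anti-phospho antibody. IC50 values came from 11-point half-log titrations, typically from 10 μM.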

[4] = biological target: CDK6/CCND1 (Homo sapiens, UniProt Q00534); assay: CDK6 homogeneous time-resolved fluorescence (HTRF) kinase assay
In short: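 Enzyme pre-incubated 20 min at 23 °C with compound, then reacted 60 min at 23 °C with 1 mM ATP and 50 nM ULight-4E-BP1 (Thr37/46) peptide; 1 nM enzyme, 1% DMSO. EDTA-stopped, Eu-anti-phospho antibody TR-FRET read (665 nm or 665/615 ratio); 11-point half-log titration from 10 μM gave IC50.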

[5] = CDK1/CCNB, >250 nM marked x, read-out: CDK1/CCNB IC50 >250 nM
[6] = CDK2/CCNE, 25-250 nM marked x, read-out: CDK2/CCNE IC50 25-250 nM
[7] = CDK4/CCND, >250 nM marked x, read-out: CDK4/CCND IC50 >250 nM
[8] = CDK6/CCND, >250 nM marked x, read-out: CDK6/CCND IC50 >250 nM
[9] = CDK1/CCNB, x = IC50 >250 nM, read-out: CDK1/CCNB IC50 (>250 nM column)
[10] = CDK2/CCNE, x = IC50 25-250 nM, read-out: CDK2/CCNE IC50 (25-250 nM)
[11] = CDK4/CCND, x = IC50 >250 nM, read-out: CDK4/CCND IC50 (>250 nM column)
[12] = CDK6/CCND, x = IC50 >250 nM, read-out: CDK6/CCND IC50 (>250 nM column)
[13] = 25-250 nM, CDK1/CCNB, read-out: CDK1/CCNB IC50, 25-250 nM
[14] = <25 nM, CDK2/CCNE, read-out: CDK2/CCNE IC50, <25 nM
[15] = 25-250 nM, CDK4/CCND, read-out: CDK4/CCND IC50, 25-250 nM
[16] = 25-250 nM, CDK6/CCND, 1 mM ATP, read-out: CDK6/CCND IC50, 25-250 nM
[17] = >250 nM, CDK1/CCNB, read-out: CDK1/CCNB IC50 >250 nM
[18] = >250 nM, CDK4/CCND, read-out: CDK4/CCND IC50, >250 nM
[19] = >250 nM, CDK6/CCND, 1 mM ATP, read-out: CDK6/CCND IC50, >250 nM

Sequence of CDK4/CCND3 (P11802 whole entry): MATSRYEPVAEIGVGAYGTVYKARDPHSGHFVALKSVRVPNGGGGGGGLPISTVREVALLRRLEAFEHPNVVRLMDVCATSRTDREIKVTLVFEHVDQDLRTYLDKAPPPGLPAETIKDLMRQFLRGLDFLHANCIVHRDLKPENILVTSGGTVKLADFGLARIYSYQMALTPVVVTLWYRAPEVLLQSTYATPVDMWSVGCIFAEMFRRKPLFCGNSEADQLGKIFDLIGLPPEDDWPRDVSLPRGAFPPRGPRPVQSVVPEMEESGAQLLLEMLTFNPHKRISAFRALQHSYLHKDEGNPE
Sequence of CDK4/CCND3 (P30281 whole entry partner): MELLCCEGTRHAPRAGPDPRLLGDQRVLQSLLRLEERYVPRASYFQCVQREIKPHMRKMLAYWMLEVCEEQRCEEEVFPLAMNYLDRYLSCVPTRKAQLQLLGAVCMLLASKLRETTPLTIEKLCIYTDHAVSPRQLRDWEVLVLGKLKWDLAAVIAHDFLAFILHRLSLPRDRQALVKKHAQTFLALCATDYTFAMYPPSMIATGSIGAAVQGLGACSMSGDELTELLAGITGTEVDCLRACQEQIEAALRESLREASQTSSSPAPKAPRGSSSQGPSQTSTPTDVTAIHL
Sequence of CDK6/CCND1 (Q00534 whole entry): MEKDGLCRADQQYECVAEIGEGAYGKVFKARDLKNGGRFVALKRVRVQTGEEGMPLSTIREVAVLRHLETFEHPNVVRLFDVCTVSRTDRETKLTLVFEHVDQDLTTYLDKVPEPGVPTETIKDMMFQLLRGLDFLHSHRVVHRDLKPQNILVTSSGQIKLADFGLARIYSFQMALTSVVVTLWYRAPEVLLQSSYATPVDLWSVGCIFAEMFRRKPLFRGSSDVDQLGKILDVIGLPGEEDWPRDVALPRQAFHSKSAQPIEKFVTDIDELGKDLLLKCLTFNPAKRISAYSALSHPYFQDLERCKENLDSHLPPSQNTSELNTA
Sequence of CDK6/CCND1 (P24385 whole entry partner): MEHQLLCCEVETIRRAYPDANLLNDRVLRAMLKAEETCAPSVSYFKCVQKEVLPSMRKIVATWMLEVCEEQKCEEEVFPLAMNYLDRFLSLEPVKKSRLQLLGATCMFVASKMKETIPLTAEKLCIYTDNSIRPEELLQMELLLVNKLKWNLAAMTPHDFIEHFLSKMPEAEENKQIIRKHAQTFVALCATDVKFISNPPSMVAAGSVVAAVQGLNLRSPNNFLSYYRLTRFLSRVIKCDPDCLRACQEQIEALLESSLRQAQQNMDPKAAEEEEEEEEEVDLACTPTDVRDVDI
Sequence of CDK1/CCNB1 (P06493 whole entry): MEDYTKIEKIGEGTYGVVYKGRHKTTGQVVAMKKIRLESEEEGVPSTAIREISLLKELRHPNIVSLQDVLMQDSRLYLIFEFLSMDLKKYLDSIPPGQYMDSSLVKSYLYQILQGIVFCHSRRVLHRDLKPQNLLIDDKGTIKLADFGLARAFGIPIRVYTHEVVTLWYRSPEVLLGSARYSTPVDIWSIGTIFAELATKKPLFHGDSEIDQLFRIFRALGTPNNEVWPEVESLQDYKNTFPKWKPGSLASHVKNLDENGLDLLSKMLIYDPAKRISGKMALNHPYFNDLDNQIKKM
Sequence of CDK1/CCNB1 (P14635 whole entry partner): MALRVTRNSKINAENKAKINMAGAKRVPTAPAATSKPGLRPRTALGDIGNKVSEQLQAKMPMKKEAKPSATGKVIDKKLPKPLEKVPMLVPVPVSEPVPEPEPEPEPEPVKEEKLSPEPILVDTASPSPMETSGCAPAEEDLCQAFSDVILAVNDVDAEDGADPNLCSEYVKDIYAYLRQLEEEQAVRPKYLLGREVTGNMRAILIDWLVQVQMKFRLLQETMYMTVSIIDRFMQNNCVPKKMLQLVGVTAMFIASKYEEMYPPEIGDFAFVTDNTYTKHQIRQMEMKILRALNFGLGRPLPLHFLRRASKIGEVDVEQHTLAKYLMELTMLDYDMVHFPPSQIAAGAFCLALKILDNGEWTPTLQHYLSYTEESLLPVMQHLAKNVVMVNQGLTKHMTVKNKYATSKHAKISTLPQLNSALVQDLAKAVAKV

SMILES: C=CS(=O)(=O)c1ccc(Nc2cc3c(-c4ccc(C#N)cc4)nccc3cn2)cc1 [Ex 131, 4-(7-((4-(vinylsulfonyl)phenyl)amino)-2,6-naphthyridin-1-yl)benzonitrile]
- IC50 [1, 5]: > 250 nM
- IC50 [2, 6]: 25 to 250 nM
- IC50 [3, 7]: > 250 nM
- IC50 [4, 8]: > 250 nM

SMILES: CCC1(CC)C(=O)Nc2cc(C#Cc3nccc4cnc(Nc5ccc(S(=O)(=O)C6CC(F)(F)C6)cc5OC)cc34)ccc21 [Ex 277, 6-((7-((4-((3,3-difluorocyclobutyl)sulfonyl)-2-methoxyphenyl)amino)-2,6-naphthyridin-1-yl)ethynyl)-3,3-diethylindolin-2-one]
- IC50 [1, 5]: > 250 nM
- IC50 [2, 6]: 25 to 250 nM
- IC50 [3, 7]: > 250 nM
- IC50 [4, 8]: > 250 nM

SMILES: Cc1c(-c2nccc3cnc(Nc4ccc(S(=O)(=O)Nc5ccc(N(C)C)nn5)cc4)cc23)ccc2c1cnn2CC(C)(C)O [Example 765, N-(6-(dimethylamino)pyridazin-3-yl)-4-((5-(1-(2-hydroxy-2-methylpropyl)-4-methyl-1H-indazol-5-yl)-2,6-naphthyridin-3-yl)amino)benzenesulfonamide]
- IC50 [1, 13]: 25 to 250 nM
- IC50 [2, 14]: < 25 nM
- IC50 [3, 15]: 25 to 250 nM
- IC50 [4, 16]: 25 to 250 nM

SMILES: CS(=O)(=O)c1ccc(Nc2ncc3ccnc(C#Cc4ccc(C#N)cc4)c3n2)cc1 [Example 949, 4-((2-((4-(methylsulfonyl)phenyl)amino)pyrido[3,4-d]pyrimidin-8-yl)ethynyl)benzonitrile]
- IC50 ([1]; 0.5 nM CDK1/CCNB1, 1 mM ATP, read-out: CDK1/CCNB IC50 >250 nM): > 250 nM
- IC50 ([2]; 3 nM CDK2/CCNE1, 1 mM ATP, read-out: CDK2/CCNE IC50 >250 nM): > 250 nM
- IC50 ([3]; 1.5 nM CDK4/CCND3, 1 mM ATP, read-out: CDK4/CCND IC50 >250 nM): > 250 nM
- IC50 ([4]; 1 nM CDK6/CCND1, 1 mM ATP, read-out: CDK6/CCND IC50 >250 nM): > 250 nM

SMILES: Cc1c(-c2nccc3cnc(Nc4ccc(S(=O)(=O)N(C)c5ncccn5)cc4)cc23)ccc2c1cnn2CC(C)(C)O [Ex 734, 4-((5-(1-(2-hydroxy-2-methylpropyl)-4-methyl-1H-indazol-5-yl)-2,6-naphthyridin-3-yl)amino)-N-methyl-N-(pyrimidin-2-yl)benzenesulfonamide]
- IC50 [1, 13]: 25 to 250 nM
- IC50 [2, 14]: < 25 nM
- IC50 [3, 15]: 25 to 250 nM
- IC50 [4, 16]: 25 to 250 nM

SMILES: Cc1c(-c2nccc3cnc(Nc4ccc(NS(=O)(=O)c5cncc(Cl)c5)cc4)cc23)ccc2c1cnn2CC(C)(C)O [Ex 822, 5-chloro-N-(4-((5-(1-(2-hydroxy-2-methylpropyl)-4-methyl-1H-indazol-5-yl)-2,6-naphthyridin-3-yl)amino)phenyl)pyridine-3-sulfonamide]
- IC50 [1, 17]: > 250 nM
- IC50 [2, 14]: < 25 nM
- IC50 [3, 18]: > 250 nM
- IC50 [4, 19]: > 250 nM

SMILES: CS(=O)(=O)N1CCC(Nc2cc3c(N4CC(C#N)C4)nccc3cn2)CC1 [Ex 43, 1-(7-((1-(methylsulfonyl)piperidin-4-yl)amino)-2,6-naphthyridin-1-yl)azetidine-3-carbonitrile]
- IC50 [1, 5]: > 250 nM
- IC50 ([2]; CDK2/CCNE, <25 nM, read-out: CDK2/CCNE IC50 <25 nM): < 25 nM
- IC50 ([3]; CDK4/CCND, 25-250 nM marked x, read-out: CDK4/CCND IC50 25-250 nM): 25 to 250 nM
- IC50 ([4]; CDK6/CCND, 25-250 nM marked x, read-out: CDK6/CCND IC50 25-250 nM): 25 to 250 nM

Further lines, results first:

- IC50 [1, 9]: > 250 nM
- IC50 [2, 10]: 25 to 250 nM
- IC50 [3, 11]: > 250 nM
- IC50 [4, 12]: > 250 nM
SMILES: CS(=O)(=O)c1ccc(Nc2cc3c(C#Cc4cnn(C5CC5)c4)nccc3cn2)cc1 [Ex 635, 5-((1-cyclopropyl-1H-pyrazol-4-yl)ethynyl)-N-(4-(methylsulfonyl)phenyl)-2,6-naphthyridin-3-amine]

- IC50 ([1]; CDK1/CCNB, x = IC50 <25 nM, read-out: CDK1/CCNB IC50 (<25 nM)): < 25 nM
- IC50 ([2]; CDK2/CCNE, x = IC50 <25 nM, read-out: CDK2/CCNE IC50 (<25 nM)): < 25 nM
- IC50 ([3]; CDK4/CCND, x = IC50 <25 nM, read-out: CDK4/CCND IC50 (<25 nM)): < 25 nM
- IC50 ([4]; CDK6/CCND, x = IC50 25-250 nM, read-out: CDK6/CCND IC50 (25-250 nM)): 25 to 250 nM
SMILES: CN1CCC(NS(=O)(=O)c2ccc(Nc3cc4c(C#Cc5ccc6c(c5)NC(=O)C6(C)C)nccc4cn3)cc2)CC1 [Example 441, 4-((5-((3,3-dimethyl-2-oxoindolin-6-yl)ethynyl)-2,6-naphthyridin-3-yl)amino)-N-(1-methylpiperidin-4-yl)benzenesulfonamide]

- IC50 [1, 9]: > 250 nM
- IC50 ([2]; CDK2/CCNE, x = IC50 >250 nM, read-out: CDK2/CCNE IC50 (>250 nM column)): > 250 nM
- IC50 [3, 11]: > 250 nM
- IC50 [4, 12]: > 250 nM
SMILES: Cc1ccc(C#Cc2nccc3cnc(Nc4ccc(S(C)(=O)=O)cc4)cc23)cc1C#N [Ex 589, 2-methyl-5-((7-((4-(methylsulfonyl)phenyl)amino)-2,6-naphthyridin-1-yl)ethynyl)benzonitrile]

- IC50 [1, 17]: > 250 nM
- IC50 ([2]; >250 nM, CDK2/CCNE, read-out: CDK2/CCNE IC50, >250 nM): > 250 nM
- IC50 [3, 18]: > 250 nM
- IC50 [4, 19]: > 250 nM
SMILES: CS(=O)(=O)c1ccc(Nc2cc3c(C#Cc4cc(F)c5cn[nH]c5c4)nccc3cn2)cc1 [Ex 860, 5-((4-fluoro-1H-indazol-6-yl)ethynyl)-N-(4-(methylsulfonyl)phenyl)-2,6-naphthyridin-3-amine]

- IC50 [1, 9]: > 250 nM
- IC50 [2, 10]: 25 to 250 nM
- IC50 [3, 11]: > 250 nM
- IC50 [4, 12]: > 250 nM
SMILES: Nc1ncccc1C#Cc1nccc2cnc(Nc3ccc(S(=O)(=O)Nc4nccc(N5CCNCC5)n4)cc3)cc12 [Ex 468, 4-((5-((2-aminopyridin-3-yl)ethynyl)-2,6-naphthyridin-3-yl)amino)-N-(4-(piperazin-1-yl)pyrimidin-2-yl)benzenesulfonamide]

- IC50 [1, 9]: > 250 nM
- IC50 [2, 10]: 25 to 250 nM
- IC50 [3, 11]: > 250 nM
- IC50 [4, 12]: > 250 nM
SMILES: CS(=O)(=O)c1ccc(Nc2cc3c(C#Cc4n[nH]c5ncccc45)nccc3cn2)cc1 [Ex 561, 5-((1H-pyrazolo[3,4-b]pyridin-3-yl)ethynyl)-N-(4-(methylsulfonyl)phenyl)-2,6-naphthyridin-3-amine]

- IC50 [1, 9]: > 250 nM
- IC50 [2, 10]: 25 to 250 nM
- IC50 [3, 11]: > 250 nM
- IC50 [4, 12]: > 250 nM
SMILES: CS(=O)(=O)c1ccc(Nc2cc3c(C#Cc4cnc(N)nn4)nccc3cn2)cc1 [Ex 613, 5-((3-amino-1,2,4-triazin-6-yl)ethynyl)-N-(4-(methylsulfonyl)phenyl)-2,6-naphthyridin-3-amine]

- IC50 [1, 9]: > 250 nM
- IC50 [2, 10]: 25 to 250 nM
- IC50 [3, 11]: > 250 nM
- IC50 [4, 12]: > 250 nM
SMILES: CS(=O)(=O)c1ccc(Nc2cc3c(C#Cc4ccc(OC(F)F)nc4)nccc3cn2)cc1 [Ex 539, 5-((6-(difluoromethoxy)pyridin-3-yl)ethynyl)-N-(4-(methylsulfonyl)phenyl)-2,6-naphthyridin-3-amine]

- IC50 [1, 9]: > 250 nM
- IC50 [2, 10]: 25 to 250 nM
- IC50 [3, 11]: > 250 nM
- IC50 ([4]; CDK6/CCND, x = IC50 <25 nM, read-out: CDK6/CCND IC50 (<25 nM)): < 25 nM
SMILES: CS(=O)(=O)c1ccc(Nc2cc3c(C#Cc4ncc(N)nc4Cl)nccc3cn2)cc1 [Ex 552, 5-((5-amino-3-chloropyrazin-2-yl)ethynyl)-N-(4-(methylsulfonyl)phenyl)-2,6-naphthyridin-3-amine]

- IC50 [1, 17]: > 250 nM
- IC50 [2, 14]: < 25 nM
- IC50 [3, 18]: > 250 nM
- IC50 [4, 19]: > 250 nM
SMILES: Cc1ccnc(NS(=O)(=O)c2ccc(Nc3cc4c(-c5ccc6c(cnn6CC(O)(C(F)(F)F)C(F)(F)F)c5C)nccc4cn3)cc2)n1 [Ex 759, 4-((5-(4-methyl-1-(3,3,3-trifluoro-2-hydroxy-2-(trifluoromethyl)propyl)-1H-indazol-5-yl)-2,6-naphthyridin-3-yl)amino)-N-(4-methylpyrimidin-2-yl)benzenesulfonamide]
